In one data set the target is K-Ras G12D (Homo sapiens, UniProt P01116, G12D). The data set is described as follows: Intact protein mass spectrometry, covalent modification. The settings on record: extended incubation at pH 7.5; 50 μM, 16 h. Format: binding. The protocol:
(§1) Purified K-Ras variants (4 μM final) were incubated with compounds at 50 or 100 μM (1% v/v DMSO final) in 20 mM HEPES pH 7.5, 150 mM NaCl, 1 mM MgCl2 in a total volume of 150 μL. After the noted time, the samples were analyzed by intact protein LC/MS using a Waters Xevo G2-XS system equipped with an Acquity UPLC BEH C4 1.7 μm column. The mobile phase was a linear gradient of 5-95% acetonitrile/water+0.05% formic acid. The spectra were processed using QuantLynx, giving the ion counts observed for the most abundant species. For assays conducted under an alternate pH, the HEPES buffer was replaced with one of the following buffers (maintaining 150 mM NaCl and 1 mM MgCl2): 20 mM MES pH 6 or 20 mM Tris pH 9.

The next data set addresses K-Ras G12V (Homo sapiens, UniProt P01116, G12V). The description is as above. Format: binding. The settings on record: extended incubation at pH 7.5; 50 μM, 16 h. The protocol: as §1
For the next data set, the target named is K-Ras Q61R (Homo sapiens, UniProt P01116, Q61R). Described as above. The class given is binding. Conditions: extended incubation at pH 7.5; 50 μM, 16 h. The protocol: as §1
Chain of K-Ras Q61R (P01116 1-188 isoform P01116-2 Q61R): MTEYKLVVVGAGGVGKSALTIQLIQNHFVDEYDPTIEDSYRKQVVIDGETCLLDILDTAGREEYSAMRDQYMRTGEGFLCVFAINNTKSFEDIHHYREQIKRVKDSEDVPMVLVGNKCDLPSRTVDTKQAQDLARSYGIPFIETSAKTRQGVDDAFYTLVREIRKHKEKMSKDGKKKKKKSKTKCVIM
A further data set has as its target T1, K-Ras(G12R)·GppNHp (Homo sapiens, UniProt P01116, C118S/C51S/C80L/G12R).
T1 construct: human K-Ras G12R Cyslight (G12R/C51S/C80L/C118S, aa 1-169); 6xHis tag + TEV cleavage site (N, cleaved yes); made in house; host or cells: E. coli BL21(DE3)
The description is as above. Format: binding. Conditions: after 72 h; 50 μM. As to the method: as §1

A further data set addresses K-Ras(G12R) (Homo sapiens, UniProt P01116, G12R). The data set is described as follows: Lysate target engagement assay (anti-Ras immunoblot). The arrangement: pMSCV-Puro plasmids containing full length human KRAS genes (G12R); expressed in transfected cells; host or cells: Ba/F3 (mouse) transduced with pMSCV-Puro KRAS(G12R); lysate. The class given is binding. As to the method:
For co-treatment with recombinant K-Ras(G12R), Ba/F3(G12R) cells were lysed with NP-40 buffer and adjusted to 1.5 mg/mL. A 0.1 μM solution of recombinant K-Ras(G12R) was prepared in NP-40 buffer. 18 μL of Ba/F3 lysate were added to 4 μL of a 0.5 mM solution of 3 containing 10% DMSO in NP-40 buffer or DMSO as control. 18 μL of recombinant K-Ras(G12R) solution or NP-40 was added and the mixtures were incubated for 16 h at 23° C. Subsequently samples were mixed with 5×SDS Loading Dye and heated at 95° C. for 5 min.
Unless otherwise noted, SDS-PAGE was run with Novex 12% Bis-Tris gel (Invitrogen) in MES running buffer (Invitrogen) at 200 V for 60 min following the manufacturer's instructions. Protein bands were transferred onto 0.2-μm nitrocellulose membranes (Bio-Rad) using a wet-tank transfer apparatus (Bio-Rad Criterion Blotter) in 1×TOWBIN buffer with 10% methanol at 75V for 45 min. Membranes were blocked in 5% BSA-TBST for 1 h at 23° C. Primary antibody binding was performed with the indicated antibodies diluted in 5% BSA-TBST at 4° C. for at least 16 h. After washing the membrane three times with TBST (5 min each wash), secondary antibodies (goat anti-rabbit IgG-IRDye 800 and goat anti-mouse IgG-IRDye 680, Li-COR) were added as solutions in 5% skim milk-TBST at the dilutions recommended by the manufacturer. Secondary antibody binding was allowed to proceed for 1 h at 23° C. The membrane was washed three times with TBST (5 min each wash) and imaged on a Li-COR Odyssey fluorescence imager.

Data set [1] is described as follows: Stability in aqueous buffers. Format: physicochemical. Conditions: over a range of pH.

T1 sequence (P01116 1-169 isoform P01116-2 G12R/C51S/C80L/C118S): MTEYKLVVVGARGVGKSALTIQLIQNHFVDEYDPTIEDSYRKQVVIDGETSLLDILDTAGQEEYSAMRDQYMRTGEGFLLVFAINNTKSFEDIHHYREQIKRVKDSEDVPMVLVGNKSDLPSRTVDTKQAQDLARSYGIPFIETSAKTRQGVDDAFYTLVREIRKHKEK
Chain of K-Ras G12D (P01116 1-188 isoform P01116-2 G12D): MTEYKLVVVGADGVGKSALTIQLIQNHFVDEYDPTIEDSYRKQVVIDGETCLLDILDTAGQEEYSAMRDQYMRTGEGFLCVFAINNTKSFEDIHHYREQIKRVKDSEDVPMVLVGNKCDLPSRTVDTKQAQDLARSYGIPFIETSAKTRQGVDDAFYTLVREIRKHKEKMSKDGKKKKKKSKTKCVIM
Chain of K-Ras G12V (P01116 1-188 isoform P01116-2 G12V): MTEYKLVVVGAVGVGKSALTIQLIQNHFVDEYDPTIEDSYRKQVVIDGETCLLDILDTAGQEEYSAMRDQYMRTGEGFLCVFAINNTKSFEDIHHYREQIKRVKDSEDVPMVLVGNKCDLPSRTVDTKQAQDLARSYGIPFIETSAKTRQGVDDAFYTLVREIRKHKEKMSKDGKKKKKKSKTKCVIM

Take `CC(=O)C(O)(O)C(=O)N1[C@@H]2CC[C@H]1CN(c1nc(OCC34CCCN3CCC4)nc3c(F)c(-c4cccc5cccc(Cl)c45)ncc13)C2` [compound 3, 1-((1R,5S)-3-(7-(8-chloronaphthalen-1-yl)-8-fluoro-2-((tetrahydro-1H-pyrrolizin-7a(5H)-yl)methoxy)pyrido[4,3-d]pyrimidin-4-yl)-3,8-diazabicyclo[3.2.1]octan-8-yl)-2,2-dihydroxybutane-1,3-dione]: on K-Ras G12D, the “covalent modification of K-Ras G12D” value was “did not modify”. Further, the “covalent modification of K-Ras G12V” value at K-Ras G12V is “did not modify”. Also, the “covalent modification of K-Ras Q61R” value at K-Ras Q61R is reported as “did not modify”. The “modification of K-Ras(G12R)·GppNHp” value on K-Ras(G12R)·GppNHp was below 5%. The “modification of exogenous recombinant K-Ras(G12R)·GDP added to lysate” value at K-Ras(G12R) (after 16 h of incubation) is recorded as “complete modification”. For the same compound, the “modification of endogenous K-Ras(G12R) in BaF3/K-Ras(G12R) lysates” value at K-Ras(G12R) (lysate not pre-loaded with GDP) is listed as “did not detect any modification”; on K-Ras(G12R) (lysates pre-loaded with excess GDP) it was “covalent modification”. Also, the “stability in aqueous buffers” value in data set [1] is given as “stable”.

The record behind these values is patent publication US20260137687A1, “GTPase INHIBITORS AND USES THEREOF” (The Regents of The University of California, priority 2022, published 2026).
